Measurements published in ChEMBL document CHEMBL1201862, “PubChem BioAssay data set” (2004).
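Tested at 5 concentrations; 48 h exposure; 96-well plates; endpoints linearly interpolated, else capped at highest concentration. Abbreviation: GI50, concentration required for 50% inhibition of growth.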 Calls of active or inactive are those of the source. Rule as the data show it: active = GI50 up to about 1.1 µM and inactive = higher.

Key:
Test in all cases: NCI anticancer screen, dose series, 48 h
786-0 = tested on: 786-0
A498 = tested on: A498
A549 = tested on: A549
ACHN = tested on: ACHN
CAKI-1 = tested on: CAKI-1
CCRF-CEM = tested on: CCRF-CEM
COLO 205 = tested on: COLO 205
DLD-1 = tested on: DLD-1
DMS-114 = tested on: DMS-114
DMS-273 = tested on: DMS-273
EKVX = tested on: EKVX
HCT-116 = tested on: HCT-116
HCT-15 = tested on: HCT-15
HOP-18 = tested on: HOP-18
HOP-62 = tested on: HOP-62
HT-29 = tested on: HT-29
IGROV-1 = tested on: IGROV-1
K562 = tested on: K562
KM-20L2 = tested on: KM-20L2
LOX IMVI = tested on: LOX IMVI
LXFL 529 = tested on: LXFL 529
M19-MEL = tested on: M19-MEL
MOLT-4 = tested on: MOLT-4
NCI-H23 = tested on: NCI-H23
NCI-H460 = tested on: NCI-H460
NCI-H522 = tested on: NCI-H522
OVCAR-8 = tested on: OVCAR-8
RXF 393 = tested on: RXF 393
SF-268 = tested on: SF-268
SF-295 = tested on: SF-295
SF-539 = tested on: SF-539
SK-MEL-28 = tested on: SK-MEL-28
SK-MEL-5 = tested on: SK-MEL-5
SK-OV-3 = tested on: SK-OV-3
SN12C = tested on: SN12C
SNB-19 = tested on: SNB-19
SW-620 = tested on: SW-620
TK-10 = tested on: TK-10
U-251 = tested on: U-251
UACC-62 = tested on: UACC-62
UO-31 = tested on: UO-31
XF498 = tested on: XF498

Measured: GI50

Cc1nc2ccccc2c(=O)n1/N=C(\N=N\c1ccc(Cl)cc1)c1ccc(N(C)C)cc1
> 100 µM: HCT-15
inactive: 786-0 > 100 µM | A498 > 100 µM | A549 > 100 µM | ACHN > 100 µM | CAKI-1 > 100 µM | CCRF-CEM 81.5 µM | COLO 205 > 100 µM | DLD-1 71.4 µM | DMS-114 38.9 µM | DMS-273 60.1 µM | EKVX > 100 µM | HCT-116 46.1 µM | HOP-18 46 µM | HOP-62 66.4 µM | HT-29 > 100 µM | IGROV-1 > 100 µM | K562 36.6 µM | KM-20L2 > 100 µM | LOX IMVI > 100 µM | LXFL 529 47.8 µM | M19-MEL > 100 µM | MOLT-4 61.1 µM | NCI-H23 72.4 µM | NCI-H460 93.8 µM | NCI-H522 38.7 µM | OVCAR-8 > 100 µM | RXF 393 80.4 µM | SF-268 32.7 µM | SF-295 > 100 µM | SF-539 > 100 µM | SK-MEL-28 26.2 µM | SK-MEL-5 54.6 µM | SK-OV-3 > 100 µM | SN12C 56.9 µM | SNB-19 48 µM | SW-620 > 100 µM | TK-10 > 100 µM | U-251 > 10 µM | UACC-62 70.3 µM | UO-31 21.8 µM | XF498 14.6 µM
